From the supplement of paper PMC10307832

Assays:
Assay in all cases: relative viability (nuclei count vs DMSO), 5 days (fraction); higher = more cells survive
ABC-1 = test system: ABC-1
Procedure, shortened: (§1)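 Nuclei were stained with Hoechst during a one-step fixation (final 0.05% Triton X-100, 1% formaldehyde, 1 ug/ml Hoechst) carried out 5 days after dosing, then counted on 4× images. The cells, lung cancer lines in 1536-well plates, had been dosed by pin tool the day after seeding with one drug alone or a fixed anchor-drug dose plus five library-drug doses (not always all listed) in √10 steps. Relative viability is the nuclei count in treated wells divided by that in vehicle wells, and each value is the median of duplicate plates.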

SW 900 = test system: SW 900
Procedure, shortened: as §1

NCI-H1755 = test system: NCI-H1755
Procedure, shortened: as §1

NCI-H2170 = test system: NCI-H2170
Procedure, shortened: as §1

NCI-H1437 = test system: NCI-H1437
Procedure, shortened: as §1

NCI-H1395 = test system: NCI-H1395
Procedure, shortened: as §1

EMC-BAC-2 = test system: EMC-BAC-2
Procedure, shortened: as §1

SK-LU-1 = test system: SK-LU-1
Procedure, shortened: as §1

PC-14 = test system: PC-14
Procedure, shortened: as §1

LCLC-97TM1 = test system: LCLC-97TM1
Procedure, shortened: as §1

LOU-NH91 = test system: LOU-NH91
Procedure, shortened: as §1

NCI-H1650 = test system: NCI-H1650
Procedure, shortened: as §1

NCI-H2009 = test system: NCI-H2009
Procedure, shortened: as §1

EPLC-272H = test system: EPLC-272H
Procedure, shortened: as §1

NCI-H522 = test system: NCI-H522
Procedure, shortened: as §1

HCC-78 = test system: HCC-78
Procedure, shortened: as §1

HCC-827 = test system: HCC-827
Procedure, shortened: as §1

LK-2 = test system: LK-2
Procedure, shortened: as §1

CAL-12T = test system: CAL-12T
Procedure, shortened: as §1

NCI-H2023 = test system: NCI-H2023
Procedure, shortened: as §1

UMC-11 = test system: UMC-11
Procedure, shortened: as §1

NCI-H596 = test system: NCI-H596
Procedure, shortened: as §1

NCI-H727 = test system: NCI-H727
Procedure, shortened: as §1

BEN = test system: BEN
Procedure, shortened: as §1

EKVX = test system: EKVX
Procedure, shortened: as §1

**Q.** What does the source list for Nc1cccc2c1CN(C1CCC(=O)NC1=O)C2=O (stereo unspecified) [Lenalidomide] + O=C(CCCCCCC(=O)Nc1ccccc1)NO [Vorinostat] (partner 1 µM)?
**A.** relative viability (ABC-1; first compound 0.253 µM): 1.31; relative viability (ABC-1; first compound 0.8 µM): 1.1; relative viability (ABC-1; first compound 2.53 µM): 1.36; relative viability (ABC-1; first compound 8 µM): 1.46; relative viability (SW 900; first compound 2.53 µM): 0.679; relative viability (SW 900; first compound 8 µM): 0.429; relative viability (NCI-H1755; first compound 0.253 µM): 0.78; relative viability (NCI-H1755; first compound 0.8 µM): 0.649; relative viability (NCI-H1755; first compound 2.53 µM): 0.728; relative viability (NCI-H1755; first compound 8 µM): 0.593; relative viability (NCI-H2170; first compound 0.253 µM): 0.883; relative viability (NCI-H2170; first compound 0.8 µM): 0.649; relative viability (NCI-H2170; first compound 2.53 µM): 0.889; relative viability (NCI-H2170; first compound 8 µM): 0.626; relative viability (NCI-H1437; first compound 0.253 µM): 0.825; relative viability (NCI-H1437; first compound 0.8 µM): 0.85; relative viability (NCI-H1437; first compound 2.53 µM): 0.934; relative viability (NCI-H1437; first compound 8 µM): 0.843; relative viability (NCI-H1395; first compound 0.253 µM): 0.807; relative viability (NCI-H1395; first compound 2.53 µM): 0.736; relative viability (NCI-H1395; first compound 8 µM): 0.567; relative viability (EMC-BAC-2; first compound 0.253 µM): 0.74; relative viability (EMC-BAC-2; first compound 0.8 µM): 0.42; relative viability (EMC-BAC-2; first compound 2.53 µM): 0.446; relative viability (EMC-BAC-2; first compound 8 µM): 0.335; relative viability (SK-LU-1; first compound 0.253 µM): 0.763; relative viability (SK-LU-1; first compound 0.8 µM): 0.877; relative viability (SK-LU-1; first compound 2.53 µM): 0.909; relative viability (SK-LU-1; first compound 8 µM): 0.759; relative viability (PC-14; first compound 0.253 µM): 0.745; relative viability (PC-14; first compound 0.8 µM): 0.713; relative viability (PC-14; first compound 2.53 µM): 0.826; relative viability (PC-14; first compound 8 µM): 0.922; relative viability (LCLC-97TM1; first compound 0.253 µM): 0.586; relative viability (LCLC-97TM1; first compound 0.8 µM): 0.581; relative viability (LCLC-97TM1; first compound 2.53 µM): 0.901; relative viability (LCLC-97TM1; first compound 8 µM): 0.507; relative viability (LOU-NH91; first compound 0.253 µM): 0.928; relative viability (LOU-NH91; first compound 0.8 µM): 0.753; relative viability (LOU-NH91; first compound 2.53 µM): 0.98; relative viability (LOU-NH91; first compound 8 µM): 0.817; relative viability (NCI-H1650; first compound 0.253 µM): 0.545; relative viability (NCI-H1650; first compound 0.8 µM): 0.527; relative viability (NCI-H1650; first compound 2.53 µM): 0.543; relative viability (NCI-H1650; first compound 8 µM): 0.664; relative viability (NCI-H2009; first compound 0.253 µM): 0.686; relative viability (NCI-H2009; first compound 0.8 µM): 0.72; relative viability (NCI-H2009; first compound 2.53 µM): 0.852; relative viability (NCI-H2009; first compound 8 µM): 0.769; relative viability (EPLC-272H; first compound 0.253 µM): 0.481; relative viability (EPLC-272H; first compound 2.53 µM): 0.296; relative viability (EPLC-272H; first compound 8 µM): 0.451; relative viability (NCI-H522; first compound 0.253 µM): 0.767; relative viability (NCI-H522; first compound 0.8 µM): 0.86; relative viability (NCI-H522; first compound 2.53 µM): 1.09; relative viability (NCI-H522; first compound 8 µM): 0.781; relative viability (HCC-78; first compound 0.253 µM): 0.447; relative viability (HCC-78; first compound 0.8 µM): 0.456; relative viability (HCC-78; first compound 2.53 µM): 0.474; relative viability (HCC-78; first compound 8 µM): 0.486; relative viability (HCC-827; first compound 0.253 µM): 1.04; relative viability (HCC-827; first compound 0.8 µM): 0.763; relative viability (HCC-827; first compound 2.53 µM): 0.985; relative viability (HCC-827; first compound 8 µM): 1.06; relative viability (LK-2; first compound 0.253 µM): 0.339; relative viability (LK-2; first compound 0.8 µM): 0.252; relative viability (LK-2; first compound 2.53 µM): 0.353; relative viability (LK-2; first compound 8 µM): 0.189; relative viability (CAL-12T; first compound 0.253 µM): 0.874; relative viability (CAL-12T; first compound 0.8 µM): 0.887; relative viability (CAL-12T; first compound 2.53 µM): 0.999; relative viability (CAL-12T; first compound 8 µM): 0.907; relative viability (NCI-H2023; first compound 0.253 µM): 0.637; relative viability (NCI-H2023; first compound 0.8 µM): 0.732; relative viability (NCI-H2023; first compound 2.53 µM): 0.652; relative viability (NCI-H2023; first compound 8 µM): 0.468; relative viability (UMC-11; first compound 0.253 µM): 0.441; relative viability (UMC-11; first compound 0.8 µM): 0.378; relative viability (UMC-11; first compound 2.53 µM): 0.428; relative viability (UMC-11; first compound 8 µM): 0.381; relative viability (NCI-H596; first compound 0.253 µM): 0.584; relative viability (NCI-H596; first compound 0.8 µM): 0.464; relative viability (NCI-H596; first compound 2.53 µM): 0.689; relative viability (NCI-H596; first compound 8 µM): 0.52; relative viability (NCI-H727; first compound 0.253 µM): 1.26; relative viability (NCI-H727; first compound 0.8 µM): 1.04; relative viability (NCI-H727; first compound 2.53 µM): 1.32; relative viability (NCI-H727; first compound 8 µM): 1.22; relative viability (BEN; first compound 0.253 µM): 0.559; relative viability (BEN; first compound 0.8 µM): 0.5; relative viability (BEN; first compound 2.53 µM): 0.617; relative viability (BEN; first compound 8 µM): 0.545; relative viability (EKVX; first compound 0.253 µM): 0.765; relative viability (EKVX; first compound 0.8 µM): 0.668; relative viability (EKVX; first compound 2.53 µM): 0.954; relative viability (EKVX; first compound 8 µM): 0.636
